The target of this assay is T1, PIKFYVE (Homo sapiens, UniProt Q9Y2I7).
T1 construct: purchased Eurofins (KINOMEscan); host or cells: E. coli BL21-derived (T7 phage display) or HEK-293
The assay can be described thus: KINOMEscan Kinase Assay (Eurofins), PIKFYVE inhibitory activity. In kind it is binding. To be noted: for IC50: KINOMEscan; for inhibition at 0.05 µM: @ 50 nM.

The structures appear in SMILES notation.

T1 sequence (Q9Y2I7 whole entry): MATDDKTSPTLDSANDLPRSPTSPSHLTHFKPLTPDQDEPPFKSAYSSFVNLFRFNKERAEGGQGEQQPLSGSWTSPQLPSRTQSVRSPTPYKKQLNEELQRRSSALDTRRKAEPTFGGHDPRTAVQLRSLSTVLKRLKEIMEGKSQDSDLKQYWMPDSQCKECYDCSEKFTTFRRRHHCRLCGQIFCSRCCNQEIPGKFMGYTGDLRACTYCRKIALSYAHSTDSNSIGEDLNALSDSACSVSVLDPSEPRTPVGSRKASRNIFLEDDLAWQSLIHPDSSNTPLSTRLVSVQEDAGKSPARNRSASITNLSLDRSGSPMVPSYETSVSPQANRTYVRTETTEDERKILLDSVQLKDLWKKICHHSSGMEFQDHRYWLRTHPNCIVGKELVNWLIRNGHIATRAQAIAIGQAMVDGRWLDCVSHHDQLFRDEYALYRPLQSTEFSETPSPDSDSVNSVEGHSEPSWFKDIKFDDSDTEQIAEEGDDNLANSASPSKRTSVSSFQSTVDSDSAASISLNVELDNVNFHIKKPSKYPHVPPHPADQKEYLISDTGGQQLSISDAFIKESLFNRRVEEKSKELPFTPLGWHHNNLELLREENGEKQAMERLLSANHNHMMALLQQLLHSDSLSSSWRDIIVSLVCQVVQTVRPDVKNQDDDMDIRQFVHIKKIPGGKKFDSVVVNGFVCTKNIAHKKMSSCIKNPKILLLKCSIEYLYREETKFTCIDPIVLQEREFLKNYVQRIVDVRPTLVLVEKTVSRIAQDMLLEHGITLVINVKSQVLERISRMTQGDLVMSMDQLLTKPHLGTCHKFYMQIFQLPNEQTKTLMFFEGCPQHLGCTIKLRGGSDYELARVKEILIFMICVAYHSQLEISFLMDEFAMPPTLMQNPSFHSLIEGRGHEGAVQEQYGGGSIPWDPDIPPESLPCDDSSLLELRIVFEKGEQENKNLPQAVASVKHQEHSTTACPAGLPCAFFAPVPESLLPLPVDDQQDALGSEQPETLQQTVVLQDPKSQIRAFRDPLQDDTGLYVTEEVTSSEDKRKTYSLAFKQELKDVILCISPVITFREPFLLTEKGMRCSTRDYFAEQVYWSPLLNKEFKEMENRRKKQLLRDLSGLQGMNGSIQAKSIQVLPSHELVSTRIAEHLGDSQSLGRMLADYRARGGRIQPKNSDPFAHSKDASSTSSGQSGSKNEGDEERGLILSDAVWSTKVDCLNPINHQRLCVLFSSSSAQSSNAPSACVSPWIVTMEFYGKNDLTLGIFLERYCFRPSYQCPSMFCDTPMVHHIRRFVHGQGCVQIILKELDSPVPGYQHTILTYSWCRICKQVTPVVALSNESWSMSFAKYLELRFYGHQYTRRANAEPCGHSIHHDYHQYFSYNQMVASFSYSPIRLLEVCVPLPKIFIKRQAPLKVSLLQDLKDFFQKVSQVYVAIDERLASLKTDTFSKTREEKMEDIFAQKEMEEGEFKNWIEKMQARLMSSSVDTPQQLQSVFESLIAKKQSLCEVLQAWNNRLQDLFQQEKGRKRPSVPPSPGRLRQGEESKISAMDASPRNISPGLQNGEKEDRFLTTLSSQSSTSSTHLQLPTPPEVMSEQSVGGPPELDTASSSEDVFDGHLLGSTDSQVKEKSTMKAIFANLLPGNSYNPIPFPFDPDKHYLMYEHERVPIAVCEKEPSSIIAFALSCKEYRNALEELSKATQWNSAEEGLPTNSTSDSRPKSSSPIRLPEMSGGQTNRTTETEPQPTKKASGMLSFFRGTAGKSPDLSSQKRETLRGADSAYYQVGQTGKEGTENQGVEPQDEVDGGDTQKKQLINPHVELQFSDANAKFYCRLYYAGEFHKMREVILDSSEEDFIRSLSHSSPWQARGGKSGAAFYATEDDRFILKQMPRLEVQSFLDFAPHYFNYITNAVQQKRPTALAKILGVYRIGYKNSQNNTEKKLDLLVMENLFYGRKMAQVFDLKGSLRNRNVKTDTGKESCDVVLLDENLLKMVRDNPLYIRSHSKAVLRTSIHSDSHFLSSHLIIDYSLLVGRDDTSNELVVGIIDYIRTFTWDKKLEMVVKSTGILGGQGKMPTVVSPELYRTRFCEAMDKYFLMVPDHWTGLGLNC

`Cc1cccc(-c2ccn(-c3nc(N4CCOCC4)c4sc(CN5CCC(N6CCC6)C(F)C5)cc4n3)n2)c1` (stereo not shown): the concentration for half-maximal inhibition (IC50) was under 1 nM.

`CO[C@@H](C)c1cccc(-c2ccn(-c3cc(N4CCOCC4)c4sc(CN5CCOCC5)cc4n3)n2)c1` (single isomer, unassigned) [Ex. 212, 4-(5-(3-(3-(1-methoxyethyl)phenyl)-1H-pyrazol-1-yl)-2-(morpholinomethyl)thieno[3,2-b]pyridin-7-yl)morpholine] had an inhibition at 0.005 µM (@ 5 nM) of 0%. As for `CS(=O)(=O)N1CCN(Cc2cc3nc(-n4ccc(-c5cccc(Br)c5)n4)nc(N4CCOCC4)c3s2)CC1` [Ex. 1, 4-(2-(3-(3-bromophenyl)-1H-pyrazol-1-yl)-6-((4-(methylsulfonyl)piperazin-1-yl)methyl)thieno[3,2-d]pyrimidin-4-yl)morpholine], the IC50 was in the range of 1 to 10 nM. The same measure, in the same setting: as for `COc1cccc(-c2ccn(-c3nc(N4CCOCC4)c4sc(CN5CCN(S(C)(=O)=O)CC5)cc4n3)n2)c1` [Ex. 3, 4-(2-(3-(3-methoxyphenyl)-1H-pyrazol-1-yl)-6-((4-(methylsulfonyl)piperazin-1-yl)methyl)thieno[3,2-d]pyrimidin-4-yl)morpholine], the figure is 1 to 10 nM.

The molecule `Cc1cccc(-c2ccn(-c3nc(N4CCOCC4)c4sc(CN5CCC(N(C)C)CC5)cc4n3)n2)c1` [Ex. 4, N, N-dimethyl-1-((4-morpholino-2-(3-(m-tolyl)-1H-pyrazol-1-yl)thieno[3,2-d]pyrimidin-6-yl)methyl)piperidin-4-amine] gave an IC50 of under 1 nM. Molecule `Cc1cccc(-c2ccn(-c3nc(N4CCOCC4)c4sc(CN5CCC(C(C)(C)O)CC5)cc4n3)n2)c1` [Ex. 5, 2-(1-((4-morpholino-2-(3-(m-tolyl)-1H-pyrazol-1-yl)thieno[3,2-d]pyrimidin-6-yl)methyl)piperidin-4-yl)propan-2-ol] displayed an inhibition at 0.05 µM of 100%. Still for that read-out and setting: next, `Cc1cccc(-c2ccn(-c3nc(N4CCOCC4)c4sc(CN5CCC(N(C)S(C)(=O)=O)CC5)cc4n3)n2)c1` [Ex. 6, N-methyl-N-(1-((4-morpholino-2-(3-(m-tolyl)-1H-pyrazol-1-yl)thieno[3,2-d]pyrimidin-6-yl)methyl)piperidin-4-yl)methanesulfonamide]: 100%. On the same count and under the same terms, as for `CC(=O)N(C)C1CCN(Cc2cc3nc(-n4ccc(-c5cccc(C)c5)n4)nc(N4CCOCC4)c3s2)CC1` [Ex. 7, N-methyl-N-(1-((4-morpholino-2-(3-(m-tolyl)-1H-pyrazol-1-yl)thieno[3,2-d]pyrimidin-6-yl)methyl)piperidin-4-yl)acetamide], the figure is 100%. For the molecule `Cc1cccc(-c2ccn(-c3nc(N4CCOCC4)c4nc(CN5CCN(S(C)(=O)=O)CC5)sc4n3)n2)c1` [Ex. 9, 4-(2-((4-(methylsulfonyl)piperazin-1-yl)methyl)-5-(3-(m-tolyl)-1H-pyrazol-1-yl)thiazolo[5,4-d]pyrimidin-7-yl)morpholine], the half-maximal inhibitory concentration (IC50) lay within 1 to 10 nM. Same read-out and setting: next, `Cc1cccc(-c2ccn(-c3nc(N4CCOCC4)c4nc(CN5CCN(S(C)(=O)=O)CC5)[nH]c4n3)n2)c1` [Ex. 10, 4-(8-((4-(methylsulfonyl)piperazin-1-yl)methyl)-2-(3-(m-tolyl)-1H-pyrazol-1-yl)-9H-purin-6-yl)morpholine]: under 1 nM; `Cc1cccc(-c2ccn(-c3nc(N4CCOCC4)c4nc(CN5CCC(N(C)S(C)(=O)=O)CC5)[nH]c4n3)n2)c1` [Ex. 11, N-methyl-N-(1-((6-morpholino-2-(3-(m-tolyl)-1H-pyrazol-1-yl)-9H-purin-8-yl)methyl)piperidin-4-yl)methanesulfonamide]: 1 to 10 nM. `Cc1cccc(-c2ccn(-c3nc(N4CCOCC4)c4nc(C(C)N5CCN(S(C)(=O)=O)CC5)sc4n3)n2)c1` (stereo not shown) [Ex. 12, 4-(2-(1-(4-(methylsulfonyl)piperazin-1-yl)ethyl)-5-(3-(m-tolyl)-1H-pyrazol-1-yl)thiazolo[5,4-d]pyrimidin-7-yl)morpholine] yielded an IC50 of 1 to 10 nM. Same read-out and setting: next, `Cc1cccc(-c2ccn(-c3nc(N4CCOCC4)c4nc(CN5CCC(C(C)(C)O)CC5)[nH]c4n3)n2)c1` [Ex. 13, 2-(1-((6-morpholino-2-(3-(m-tolyl)-1H-pyrazol-1-yl)-9H-purin-8-yl)methyl)piperidin-4-yl)propan-2-ol]: 1 to 10 nM. On the same count and under the same terms, next, `Cc1cccc(-c2ccn(-c3nc(N4CCOCC4)c4nc(CN5CCOCC5)[nH]c4n3)n2)c1` [Ex. 14, 4-((6-morpholino-2-(3-(m-tolyl)-1H-pyrazol-1-yl)-9H-purin-8-yl)methyl) morpholine]: 1 to 10 nM; `Cc1cccc(-c2ccn(-c3nc(N4CCOCC4)c4nc(CN5CCC(N(C)C)CC5)[nH]c4n3)n2)c1` [Ex. 15, N,N-dimethyl-1-((6-morpholino-2-(3-(m-tolyl)-1H-pyrazol-1-yl)-9H-purin-8-yl)methyl)piperidin-4-amine]: under 1 nM. The same measure, in the same setting: next, `Cc1cccc(-c2ccn(-c3nc(N4CCOCC4)c4nc(CN5CCC(N(C)C)CC5)sc4n3)n2)c1` [Ex. 16, N,N-dimethyl-1-((7-morpholino-5-(3-(m-tolyl)-1H-pyrazol-1-yl)thiazolo[5,4-d]pyrimidin-2-yl)methyl)piperidin-4-amine]: under 1 nM. For `Cc1cccc(-c2ccn(-c3nc(N4CCOCC4)c4sc(C(C)N5CCC(N(C)C)CC5)cc4n3)n2)c1` (stereo not shown) [Ex. 17, N,N-dimethyl-1-(1-(4-morpholino-2-(3-(m-tolyl)-1H-pyrazol-1-yl)thieno[3,2-d]pyrimidin-6-yl)ethyl)piperidin-4-amine], the IC50 was under 1 nM. On the same count and under the same terms, as for `Cc1cccc(-c2ccn(-c3nc(N4CCOCC4)c4sc(CN5CC[C@@H](N(C)C)C5)cc4n3)n2)c1` [Ex. 18, (R)—N,N-dimethyl-1-((4-morpholino-2-(3-(m-tolyl)-1H-pyrazol-1-yl)thieno[3,2-d]pyrimidin-6-yl)methyl)pyrrolidin-3-amine], the figure is under 1 nM. The same measure, in the same setting: next, `Cc1cccc(-c2ccn(-c3nc(N4CCOCC4)c4sc(CN5CC[C@H](N(C)C)C5)cc4n3)n2)c1` [Ex. 19, (S)—N,N-dimethyl-1-((4-morpholino-2-(3-(m-tolyl)-1H-pyrazol-1-yl)thieno[3,2-d]pyrimidin-6-yl)methyl)pyrrolidin-3-amine]: under 1 nM.

In turn, `Cc1cccc(-c2ccn(-c3nc(N4CCOCC4)c4sc(CN5CC6C(C5)C6N(C)C)cc4n3)n2)c1` (stereo not shown) [Ex. 20, N,N-dimethyl-3-((4-morpholino-2-(3-(m-tolyl)-1H-pyrazol-1-yl)thieno[3,2-d]pyrimidin-6-yl)methyl)-3-azabicyclo[3.1.0]hexan-6-amine] came in with a half-inhibitory concentration (IC50) of under 1 nM. Same read-out and setting: as for `Cc1cccc(-c2ccn(-c3nc(N4CCOCC4)c4sc(C(=O)N5CC[C@@H](N(C)C)C5)cc4n3)n2)c1` [Ex. 21, (R)-(3-(dimethylamino)pyrrolidin-1-yl)(4-morpholino-2-(3-(m-tolyl)-1H-pyrazol-1-yl)thieno[3,2-d]pyrimidin-6-yl)methanone], the figure is under 1 nM; as for `Cc1cccc(-c2ccn(-c3nc(N4CCOCC4)c4sc(C(=O)N5CCC(C(C)(C)O)CC5)cc4n3)n2)c1` [Ex. 22, (4-(2-hydroxypropan-2-yl)piperidin-1-yl)(4-morpholino-2-(3-(m-tolyl)-1H-pyrazol-1-yl)thieno[3,2-d]pyrimidin-6-yl)methanone], under 1 nM; as for `Cc1cccc(-c2ccn(-c3nc(N4CCOCC4)c4sc(C(=O)N5CCC(N(C)C)CC5)cc4n3)n2)c1` [Ex. 23, (4-(dimethylamino)piperidin-1-yl)(4-morpholino-2-(3-(m-tolyl)-1H-pyrazol-1-yl)thieno[3,2-d]pyrimidin-6-yl)methanone], under 1 nM. Still for that read-out and setting: as for `Cc1cccc(-c2ccn(-c3nc(N4CCOCC4)c4sc(C(=O)N5CC[C@H](N(C)C)C5)cc4n3)n2)c1` [Ex. 24, (S)-(3-(dimethylamino)pyrrolidin-1-yl)(4-morpholino-2-(3-(m-tolyl)-1H-pyrazol-1-yl)thieno[3,2-d]pyrimidin-6-yl)methanone], the figure is under 1 nM. On the same count and under the same terms, next, `Cc1cccc(-c2ccn(-c3nc(N4CCOCC4)c4sc(C(=O)N5CCN(C)CC5)cc4n3)n2)c1` [Ex. 25, (4-methylpiperazin-1-yl)(4-morpholino-2-(3-(m-tolyl)-1H-pyrazol-1-yl)thieno[3,2-d]pyrimidin-6-yl)methanone]: under 1 nM; `Cc1cccc(-c2ccn(-c3nc(N4CCOCC4)c4sc(C(C)N5CCN(S(C)(=O)=O)CC5)cc4n3)n2)c1` (stereo not shown) [Ex. 26, 4-(6-(1-(4-(methylsulfonyl)piperazin-1-yl)ethyl)-2-(3-(m-tolyl)-1H-pyrazol-1-yl)thieno[3,2-d]pyrimidin-4-yl)morpholine]: 1 to 10 nM. `Cc1cccc(-c2ccn(-c3cc(N4CCOCC4)c4nc(CN5CCN(S(C)(=O)=O)CC5)[nH]c4n3)n2)c1` [Ex. 27, 4-(2-((4-(methylsulfonyl)piperazin-1-yl)methyl)-5-(3-(m-tolyl)-1H-pyrazol-1-yl)-3H-imidazo[4,5-b]pyridin-7-yl)morpholine] gave a half-inhibitory concentration (IC50) of under 1 nM. Still for that read-out and setting: next, `Cc1cccc(-c2ccn(-c3cc(N4CCOCC4)c4nc(CN5CCC(N(C)C)CC5)[nH]c4n3)n2)c1` [Ex. 28, N,N-dimethyl-1-((7-morpholino-5-(3-(m-tolyl)-1H-pyrazol-1-yl)-3H-imidazo[4,5-b]pyridin-2-yl)methyl)piperidin-4-amine]: under 1 nM; `Cc1cccc(-c2ccn(-c3nc(N4CCOCC4)c4sc(CN5CCOCC5)cc4n3)n2)c1` [Ex. 29, 4-((4-morpholino-2-(3-(m-tolyl)-1H-pyrazol-1-yl)thieno[3,2-d]pyrimidin-6-yl)methyl)morpholine]: under 1 nM. In turn, `Cc1cccc(-c2ccn(-c3nc(N4CCOCC4)c4nc(CN5CCOCC5)sc4n3)n2)c1` [Ex. 30, 4-((7-morpholino-5-(3-(m-tolyl)-1H-pyrazolyl)thiazolo[5,4-d]pyrimidin-2-yl)methyl)morpholine] registered a half-maximal inhibitory concentration (IC50) of 1 to 10 nM. The same measure, in the same setting: next, `Cc1cccc(-c2ccn(-c3nc(N4CCOCC4)c4sc(CN5CCN(C)CC5)cc4n3)n2)c1` [Ex. 31, 4-(6-((4-methylpiperazin-1-yl)methyl)-2-(3-(m-tolyl)-1H-pyrazol-1-yl)thieno[3,2-d]pyrimidin-4-yl)morpholine]: 1 to 10 nM.

Values taken from patent US20230265103A1 (TME Therapeutics LLC, priority 2021, published 2023).
